Results: the NIST ThermoML archive (doi:10.1016/j.tca.2010.03.028)

What was measured:
[1] = xn = mol fraction of the nth substance listed; details: 308.15 K, 101 kPa, Liquid; for excess molar volume: Direct dilatometry; for speed of sound: Linear variable-path acoustic interferometer
[2] = excess molar enthalpy (molar enthalpy of mixing); xn = mol fraction of the nth substance listed; details: 308.15 K, 101 kPa, Liquid, Calvet calorimetry

C1CCOCC1 [tetrahydropyran] + CCCCCC
Details | excess molar enthalpy [kcal/mol] | excess molar volume [m3/mol] | speed of sound [m/s]
[1], x1 = 0.0328 | – | 1.4e-08 | –
[1], x1 = 0.0459 | – | 1.9e-08 | –
[1], x1 = 0.0694 | – | 2.7e-08 | –
[1], x1 = 0.0785 | – | 3e-08 | –
[1], x1 = 0.0981 | – | – | 1054
[1], x1 = 0.1294 | – | 4.4e-08 | –
[1], x1 = 0.1561 | – | 4.9e-08 | –
[1], x1 = 0.1578 | – | – | 1067
[1], x1 = 0.1965 | – | – | 1075
[1], x1 = 0.2753 | – | 6.4e-08 | –
[1], x1 = 0.2955 | – | – | 1093
[1], x1 = 0.3262 | – | 6.6e-08 | –
[1], x1 = 0.3313 | – | – | 1099
[1], x1 = 0.3955 | – | – | 1110
[1], x1 = 0.4469 | – | – | 1118
[1], x1 = 0.4629 | – | 6.2e-08 | –
[1], x1 = 0.4947 | – | – | 1126
[1], x1 = 0.515 | – | 5.8e-08 | –
[1], x1 = 0.5211 | – | – | 1130
[1], x1 = 0.5955 | – | – | 1143
[1], x1 = 0.6692 | – | 4.2e-08 | –
[1], x1 = 0.6955 | – | – | 1161
[1], x1 = 0.7311 | – | – | 1168
[1], x1 = 0.7837 | – | 2.8e-08 | –
[1], x1 = 0.7965 | – | – | 1181
[1], x1 = 0.8461 | – | 2e-08 | –
[1], x1 = 0.8992 | – | – | 1203
[1], x1 = 0.9239 | – | 1e-08 | –
[2], x1 = 0.0581 | 0.0246 | – | –
[2], x1 = 0.1073 | 0.044 | – | –
[2], x1 = 0.1962 | 0.075 | – | –
[2], x1 = 0.2274 | 0.0844 | – | –
[2], x1 = 0.3276 | 0.109 | – | –
[2], x1 = 0.3888 | 0.12 | – | –
[2], x1 = 0.4395 | 0.126 | – | –
[2], x1 = 0.4968 | 0.13 | – | –
[2], x1 = 0.522 | 0.131 | – | –
[2], x1 = 0.5931 | 0.129 | – | –
[2], x1 = 0.6634 | 0.121 | – | –
[2], x1 = 0.7514 | 0.103 | – | –
[2], x1 = 0.8124 | 0.0849 | – | –
[2], x1 = 0.8997 | 0.0509 | – | –

C1CCOCC1 [tetrahydropyran] + CCCCCCC
Details | excess molar enthalpy [kcal/mol] | excess molar volume [m3/mol] | speed of sound [m/s]
[1], x1 = 0.0543 | – | 5.7e-08 | –
[1], x1 = 0.0833 | – | – | 1100
[1], x1 = 0.113 | – | 1.11e-07 | –
[1], x1 = 0.1323 | – | – | 1107
[1], x1 = 0.1977 | – | – | 1117
[1], x1 = 0.2031 | – | 1.77e-07 | –
[1], x1 = 0.2396 | – | – | 1127
[1], x1 = 0.2613 | – | 2.1e-07 | –
[1], x1 = 0.2998 | – | 2.28e-07 | –
[1], x1 = 0.3245 | – | – | 1137
[1], x1 = 0.3475 | – | 2.45e-07 | –
[1], x1 = 0.3812 | – | – | 1145
[1], x1 = 0.3991 | – | 2.58e-07 | –
[1], x1 = 0.4396 | – | – | 1154
[1], x1 = 0.4441 | – | 2.65e-07 | –
[1], x1 = 0.4964 | – | 2.68e-07 | –
[1], x1 = 0.5033 | – | – | 1163
[1], x1 = 0.5601 | – | 2.64e-07 | –
[1], x1 = 0.5684 | – | – | 1172
[1], x1 = 0.6107 | – | 2.55e-07 | –
[1], x1 = 0.6161 | – | – | 1178
[1], x1 = 0.688 | – | – | 1187
[1], x1 = 0.7123 | – | 2.2e-07 | –
[1], x1 = 0.7646 | – | – | 1197
[1], x1 = 0.8011 | – | 1.72e-07 | –
[1], x1 = 0.8223 | – | – | 1204
[1], x1 = 0.8999 | – | 9.8e-08 | –
[1], x1 = 0.9044 | – | – | 1213
[2], x1 = 0.0842 | 0.0387 | – | –
[2], x1 = 0.1777 | 0.0796 | – | –
[2], x1 = 0.2324 | 0.101 | – | –
[2], x1 = 0.3339 | 0.132 | – | –
[2], x1 = 0.3741 | 0.141 | – | –
[2], x1 = 0.4413 | 0.15 | – | –
[2], x1 = 0.5008 | 0.153 | – | –
[2], x1 = 0.5989 | 0.147 | – | –
[2], x1 = 0.6821 | 0.13 | – | –
[2], x1 = 0.7124 | 0.122 | – | –
[2], x1 = 0.7654 | 0.104 | – | –
[2], x1 = 0.8325 | 0.0779 | – | –
[2], x1 = 0.8778 | 0.0581 | – | –
[2], x1 = 0.9213 | 0.0379 | – | –

C1CCOCC1 [tetrahydropyran] + C1CCCCC1
Details | excess molar enthalpy [kcal/mol] | excess molar volume [m3/mol] | speed of sound [m/s]
[1], x1 = 0.0648 | – | 9.1e-08 | –
[1], x1 = 0.0785 | – | – | 1209
[1], x1 = 0.1372 | – | 1.72e-07 | –
[1], x1 = 0.161 | – | – | 1205
[1], x1 = 0.1954 | – | 2.24e-07 | –
[1], x1 = 0.1965 | – | – | 1204
[1], x1 = 0.2351 | – | 2.53e-07 | –
[1], x1 = 0.2477 | – | – | 1202
[1], x1 = 0.303 | – | 2.9e-07 | –
[1], x1 = 0.3378 | – | – | 1200
[1], x1 = 0.3575 | – | 3.1e-07 | –
[1], x1 = 0.3879 | – | – | 1199
[1], x1 = 0.433 | – | – | 1199
[1], x1 = 0.4351 | – | 3.23e-07 | –
[1], x1 = 0.4712 | – | – | 1199
[1], x1 = 0.4911 | – | 3.22e-07 | –
[1], x1 = 0.5344 | – | – | 1200
[1], x1 = 0.5412 | – | 3.14e-07 | –
[1], x1 = 0.5988 | – | – | 1202
[1], x1 = 0.6421 | – | – | 1203
[1], x1 = 0.6536 | – | 2.76e-07 | –
[1], x1 = 0.721 | – | 2.4e-07 | –
[1], x1 = 0.7533 | – | – | 1209
[1], x1 = 0.7952 | – | 1.9e-07 | –
[1], x1 = 0.8066 | – | – | 1212
[1], x1 = 0.8827 | – | 1.17e-07 | –
[1], x1 = 0.9325 | – | 7e-08 | –
[2], x1 = 0.0634 | 0.0319 | – | –
[2], x1 = 0.1146 | 0.0546 | – | –
[2], x1 = 0.2073 | 0.088 | – | –
[2], x1 = 0.2734 | 0.106 | – | –
[2], x1 = 0.3379 | 0.118 | – | –
[2], x1 = 0.3805 | 0.123 | – | –
[2], x1 = 0.4339 | 0.127 | – | –
[2], x1 = 0.5322 | 0.126 | – | –
[2], x1 = 0.6045 | 0.118 | – | –
[2], x1 = 0.6848 | 0.103 | – | –
[2], x1 = 0.7529 | 0.0864 | – | –
[2], x1 = 0.7939 | 0.0744 | – | –
[2], x1 = 0.8564 | 0.054 | – | –
[2], x1 = 0.8976 | 0.0394 | – | –
